Results published in patent US10544154B2, “Opioid receptor antagonist prodrugs” (Nirsum Laboratories, Inc., priority 2017, dated 2020).
≈ marks a conversion by molar mass, not a printed value.

Assays:
[1] = oral dosing; cited from earlier work
[2] = Plasma stability, dog plasma (HPLC-MS); assay type: in vitro ADME; details: 2 μM, 37° C.
Method: (§1) Plasma stability determination of the test compounds in rat, dog, cynomolgus monkey and human plasma is performed using HPLC-MS. For rat, incubations are carried out in 96-well polypropylene plates in 5 aliquots of 70 μL each (one for each time point). […] Five time points are analyzed (0, 15, 120, 480 and 1440 min). For dog, monkey and human, test compounds (2 μM, final solvent concentration 1%) were also incubated at 37° C. and analyzed at five time points (0, 10, 30, 60 and 120 min). All incubations are performed in duplicates. The samples are analyzed by HPLC-MS. The percentage of parent compound remaining after incubation in plasma is determined.

[3] = Liver S9 fraction stability, human; assay type: in vitro ADME; details: 2 μM, 1.0 mg/ml S9 protein, 37° C.
Method: (§2) Liver S9 fraction stability determination of the test compounds in dog, cynomolgus monkey and human is performed using HPLC-MS. Test compound (2 μM, 0.1% DMSO, 1% Methanol final concentration) was assessed for stability in a 50 μl phosphate buffer containing 1.0 mg/ml S9 protein from each of the three species and 5 mM D-saccharic acid-1, 4-lactone. Samples were incubated at 37° C. for 60 minutes and the % compound remaining was assessed.

[4] = Plasma stability, rat plasma (HPLC-MS); assay type: in vitro ADME; details: 10 μM, 37° C.
Method in brief: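 Rat, dog, cynomolgus monkey and human plasma incubated in duplicate; rat sampled at 0, 15, 120, 480 and 1440 min. Dog, monkey and human used 2 μM compound (final), 1% solvent, 37° C., sampled at 0, 10, 30, 60 and 120 min. HPLC-MS gave % parent remaining.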

[5] = Plasma stability, human plasma (HPLC-MS); assay type: in vitro ADME; details: 2 μM, 37° C.
Method: as §1, with “For dog, monkey and human, test compounds (2 μM, final solvent concentration 1%) were also incubated at 37° C. and analyzed at five time points (0, 10, 30, 60 and 120 min).” left out

[6] = Liver S9 fraction stability, cynomolgus monkey; assay type: in vitro ADME; details: 2 μM, 1.0 mg/ml S9 protein, 37° C.
Method: as §2

[7] = Plasma stability, cynomolgus monkey plasma (HPLC-MS); assay type: in vitro ADME; details: 2 μM, 37° C., 0 min
Method: as §1, with “For dog, monkey and human, test compounds (2 μM, final solvent concentration 1%) were also incubated at 37° C. and analyzed at five time points (0, 10, 30, 60 and 120 min).” left out

[8] = Clinical observations for dogs in pharmacokinetic studies; assay type: in vivo, Beagle dogs; details: 48 mg/kg DeepIM
Method in brief: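 Body weight checked weekly and used on dosing morning to set volume. Formulation (400 mg base equivalents/ml, sesame oil with 1% benzyl alcohol, unless otherwise specified) given by deep intramuscular injection into thigh muscle under propofol (6 mg/kg IV) sedation, vehicle into the opposite side; sites may rotate on repeat dosing.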

[9] = Liver S9 fraction stability, dog; assay type: in vitro ADME; details: 2 μM, 1.0 mg/ml S9 protein, 37° C.
Method: as §2

[10] = Equilibrium solubility in water (Table 10); details: for solubility thermodynamic: water, 40 °C, thermodynamic from solid
[11] = Solubility determination in oil (cottonseed oil, sesame oil), HPLC; details: Heating Temp. 60 °C, Obs. Temp. 25 °C
Method: A known amount of test substance (˜40 mg) was weighed into the vial, 100 μL of oil was added and heated to 60° C. and then system was slurried to reach equilibrium. […] Then the clear solution was placed at room temperature (25° C.) for 24 h to confirm whether there was solid precipitation. Extra oil was added into the vial once compound precipitated out and then the system was re-equilibrated at 1000 rpm at room temperature (25° C.). Final concentration was determined by HPLC method as described below in Table 6a and 6b.

[12] = Rat pharmacokinetic studies, intramuscular administration; assay type: in vivo, male Sprague Dawley Rats; details: rat IM 0.80 mg/kg, saline
Method: The purpose of this study is to determine the pharmacokinetics of test compounds in plasma, following intramuscular administration to male Sprague Dawley Rats (n=3, unless otherwise specified).
The dose formulation of 400 mg base equivalents/ml in sesame oil+1% benzyl alcohol (unless otherwise specified) was administered by intramuscular injection. The dose volume was determined by the animals' body weight determined on the morning of dosing day.
Each collected blood sample was centrifuged for 4 minutes at 4° C. and 10000 rpm for plasma collection. Plasma was collected and transferred into a pre-labeled PP tube in dry ice at each time point and precipitated immediately using ACN at a ratio of 1:4 (plasma:ACN). Centrifuged again (10 minutes, 12000 rpm) and obtain the supernatant.
LC-MS/MS methods for the quantitative determination of test compound in biological matrix were developed. […] The sample analysis was performed concurrently with a set of calibration standards and two sets of QC samples using the LC-MS/MS method.
Plasma concentration versus time data was analyzed by non-compartmental approaches using the Phoenix WinNonlin 6.3 software program. Cmax, Tmax, T1/2, AUC(0-t), AUC(0-inf), MRT(0-t), MRT(0-inf) and graphs of plasma concentration versus time profile were prepared.

Q: Which mean elimination half-life [1] does the source give for Oc1ccc2c3c1O[C@H]1[C@H](O)CC[C@@]4(O)[C@@H](C2)N(CC2CC2)CC[C@]314 [6-β-naltrexol] here?
A: The mean elimination half-life was “thirteen”.

Q: With C=C1CC[C@@]2(O)C3Cc4ccc(OC(=O)OCCCCCCCCCCCC)c5c4[C@@]2(CCN3CC2CC2)[C@H]1O5 [Compound 6, (4aS,7aS,12bS)-3-(cyclopropylmethyl)-4a-hydroxy-7-methylene-2,3,4,4a,5,6,7,7a-octahydro-1H-4,12-methanobenzofuro[3,2-e]isoquinolin-9-yl dodecyl carbonate] as the compound, how does the “% remaining at time point in minutes, 0 min” value [2] read?
A: The value was 100%.

Q: What about the “Liver S9 Fraction Stability, % remaining at 60 minutes, Human” value [3] of the same compound?
A: The value was 5.3%.

Q: What about the “% remaining at time point in minutes, 0 min” value [4] of the same compound?
A: Its value is 100%.

Q: And the “% remaining at time point in minutes, 120 min” value [4]?
A: The value was 7.6%.

Q: What about the “% remaining at time point in minutes, 480 min” value [4] of the same compound?
A: The value was 4%.

Q: What about the “% remaining at time point in minutes, 1440 min” value [4] of the same compound?
A: The value was 1.6%.

Q: And the “% remaining at time point in minutes, 0 min” value [5]?
A: Its value is 100%.

Q: What about the “Liver S9 Fraction Stability, % remaining at 60 minutes, Monkey” value [6] of the same compound?
A: The value was 0%.

Q: What about the “% remaining at time point in minutes, 0 min” value [7] of the same compound?
A: The value was 100%.

Q: With C=C1CC[C@@]2(O)C3Cc4ccc(OCOC(=O)OCCCCCCCCCCCC)c5c4[C@@]2(CCN3CC2CC2)[C@H]1O5 [Compound 24, (((4aS,7aS,12bS)-3-(cyclopropylmethyl)-4a-hydroxy-7-methylene-2,3,4,4a,5,6,7,7a-octahydro-1H-4,12-methanobenzofuro[3,2-e]isoquinolin-9-yl)oxy)methyl dodecyl carbonate] as the compound, how does the “% remaining at time point in minutes, 0 min” value [2] read?
A: Its value is 100%.

Q: And the “Liver S9 Fraction Stability, % remaining at 60 minutes, Human” value [3]?
A: The value was 3.5%.

Q: What about the BT ([8]; dog D1501, 24 hr) of the same compound?
A: Its BT is 38.8.

Q: What about the BT ([8]; dog D1501, 96 hr) of the same compound?
A: The BT was “limb/BT: 39.2”.

Q: And the BT ([8]; dog D1501, 120 hr)?
A: The BT was 39.2.

Q: And the BT ([8]; dog D1501, 144 hr)?
A: Its BT is 39.6.

Q: And the BT ([8]; dog D1501, 192 hr)?
A: Its BT is “calf/BT: 39.0”.

Q: And the BT ([8]; dog D1501, 216 hr)?
A: Its BT is 8 * 5 cm/BT: 39.0.

Q: And the BT ([8]; dog D1501, 240 hr)?
A: Its BT is 8 * 5 cm/BT: 39.0.

Q: What about the BT ([8]; dog D1501, 264 hr) of the same compound?
A: Its BT is 6 * 5 cm/BT: 38.9.

Q: And the BT ([8]; dog D1501, 288 hr)?
A: The BT was 6 * 5 cm/BT: 38.9.

Q: What about the BT ([8]; dog D1501, […]) of the same compound?
A: The BT was 39.6.

Q: And the BT ([8]; dog D1502, 96 hr)?
A: Its BT is “groin/red/BT: 38.3”.

Q: What about the BT ([8]; dog D1502, 120 hr) of the same compound?
A: The BT was “groin/red/BT: 38.7”.

Q: And the BT ([8]; dog D1502, 144 hr)?
A: Its BT is “groin/red/BT: 38.3”.

Q: What about the BT ([8]; dog D1502, 192 hr) of the same compound?
A: The BT was “groin/red/BT: 38.5”.

Q: And the BT ([8]; dog D1502, 216 hr)?
A: Its BT is “groin/red/BT: 38.4”.

Q: And the BT ([8]; dog D1502, 240 hr)?
A: The BT was “leg/red/BT: 38.9”.

Q: And the BT ([8]; dog D1502, 264 hr)?
A: Its BT is “leg/red/BT: 38.3”.

Q: And the BT ([8]; dog D1502, 288 hr)?
A: The BT was “leg/red/BT: 38.5”.

Q: And the BT ([8]; dog D1502, […])?
A: The BT was “groin/red/BT: 38.4”.

Q: What about the BT ([8]; third dog (head prints D1502), 144 hr) of the same compound?
A: The BT was 8 * 8 cm/BT: 39.5.

Q: What about the BT ([8]; third dog (head prints D1502), 192 hr) of the same compound?
A: Its BT is 8 * 8 cm/BT: 38.0.

Q: And the BT ([8]; third dog (head prints D1502), 216 hr)?
A: The BT was 8 * 8 cm/BT: 38.8.

Q: And the BT ([8]; third dog (head prints D1502), 240 hr)?
A: Its BT is 8 * 8 cm/BT: 39.2.

Q: And the BT ([8]; third dog (head prints D1502), 264 hr)?
A: Its BT is 8 * 8 cm/BT: 38.9.

Q: What about the BT ([8]; third dog (head prints D1502), 288 hr) of the same compound?
A: Its BT is 8 * 8 cm/BT: 38.8.

Q: And the BT ([8]; third dog (head prints D1502), […])?
A: The BT was 8 * 8 cm/BT: 39.3.

Q: And the “% remaining at time point in minutes, 0 min” value [4]?
A: The value was 100%.

Q: And the “% remaining at time point in minutes, 15 min” value [4]?
A: The value was 32%.

Q: What about the “% remaining at time point in minutes, 480 min” value [4] of the same compound?
A: The value was 8.2%.

Q: What about the “% remaining at time point in minutes, 1440 min” value [4] of the same compound?
A: Its value is 3%.

Q: What about the “% remaining at time point in minutes, 0 min” value [5] of the same compound?
A: The value was 100%.

Q: And the “% remaining at time point in minutes, 15 min” value ([5]; 15 min)?
A: Its value is 94%.

Q: What about the “Liver S9 Fraction Stability, % remaining at 60 minutes, Monkey” value [6] of the same compound?
A: The value was 3%.

Q: What about the “Liver S9 Fraction Stability, % remaining at 60 minutes, Dog” value [9] of the same compound?
A: The value was 3.6%.

Q: And the “% remaining at time point in minutes, 0 min” value [7]?
A: Its value is 100%.

Q: For C=C1CC[C@@]2(O)C3Cc4ccc(OC(=O)CCCCCCCCCCCCCCC)c5c4[C@@]2(CCN3CC2CC2)[C@H]1O5 [Compound 56, (4aS,7aS,12bS)-3-(cyclopropylmethyl)-4a-hydroxy-7-methylene-2,3,4,4a,5,6,7,7a-octahydro-1H-4,12-methanobenzofuro[3,2-e]isoquinolin-9-yl palmitate, reference compound], which solubility thermodynamic [10] is on record?
A: The solubility thermodynamic was 6.6 µg/mL (≈ 11.4 µM).

Q: And the “% remaining at time point in minutes, 0 min” value [4]?
A: Its value is 100%.

Q: What does the source list for C=C1CC[C@@]2(O)C3Cc4ccc(OC(=O)CCCCCCCCCCC)c5c4[C@@]2(CCN3CC2CC2)[C@H]1O5 [Compound 59, (4aS,7aS,12bS)-3-(cyclopropylmethyl)-4a-hydroxy-7-methylene-2,3,4,4a,5,6,7,7a-octahydro-1H-4,12-methanobenzofuro[3,2-e]isoquinolin-9-yl dodecanoate, reference compound]?
A: Equilibrium solubility Water ([10]; Heating Temp. 40 °C, Obs. Temp. 40 °C): <1 µg/mL; % remaining at time point in minutes, 0 min [4]: 100%; % remaining at time point in minutes, 15 min [4]: 5.9%; % remaining at time point in minutes, 120 min [4]: 0.7%; % remaining at time point in minutes, 480 min [4]: 0.2%; % remaining at time point in minutes, 1440 min [4]: 0%; Approximate Solubility in Excipient: Cottonseed oil [11]: >414000 µg/mL; Approximate Solubility in Excipient: Sesame oil [11]: >393300 µg/mL

Q: With C=C1CC[C@@]2(O)[C@H]3Cc4ccc(O)c5c4[C@@]2(CCN3CC2CC2)[C@H]1O5.Cl [Nalmefene HCl-IR] as the compound, how does the “AUC0-inf (ng · h/mL) nalmefene” value [12] read?
A: Its value is 66.0 ng·h/mL.

Q: And the “Terminal Half-life t1/2 (hour) nalmefene” value [12]?
A: The value was 0.87 h.

Q: With C=C1CC[C@@]2(O)[C@H]3Cc4ccc(O)c5c4[C@@]2(CCN3CC2CC2)[C@H]1O5 [nalmefene, 17-cyclopropylmethyl-4,5α-epoxy-6-methylenemorphinan-3,14-diol] as the compound, how does the solubility thermodynamic [10] read?
A: Its solubility thermodynamic is 25 µg/mL (≈ 73.7 µM).
